Positions count from the first letter of the chain named. Bridge positions count the residues as written; N and C are the ends. Ends that are not written are not given here.
Experiments:
[1] = biological target: T1, K352E hGPRC6A (Homo sapiens, UniProt Q5T6X5, K352E); test: cAMP accumulation in HEK-293 cells transfected with K352E hGPRC6A; assay type: cell-based; settings: K352E mutant; for cAMP accumulation by Ocn small fragments: fragment at 20 nM, Figure 6C
T1 construct: expressed in transfected cells; host or cells: HEK-293, pcDNA3
T1 sequence (Q5T6X5 19-926 K352E): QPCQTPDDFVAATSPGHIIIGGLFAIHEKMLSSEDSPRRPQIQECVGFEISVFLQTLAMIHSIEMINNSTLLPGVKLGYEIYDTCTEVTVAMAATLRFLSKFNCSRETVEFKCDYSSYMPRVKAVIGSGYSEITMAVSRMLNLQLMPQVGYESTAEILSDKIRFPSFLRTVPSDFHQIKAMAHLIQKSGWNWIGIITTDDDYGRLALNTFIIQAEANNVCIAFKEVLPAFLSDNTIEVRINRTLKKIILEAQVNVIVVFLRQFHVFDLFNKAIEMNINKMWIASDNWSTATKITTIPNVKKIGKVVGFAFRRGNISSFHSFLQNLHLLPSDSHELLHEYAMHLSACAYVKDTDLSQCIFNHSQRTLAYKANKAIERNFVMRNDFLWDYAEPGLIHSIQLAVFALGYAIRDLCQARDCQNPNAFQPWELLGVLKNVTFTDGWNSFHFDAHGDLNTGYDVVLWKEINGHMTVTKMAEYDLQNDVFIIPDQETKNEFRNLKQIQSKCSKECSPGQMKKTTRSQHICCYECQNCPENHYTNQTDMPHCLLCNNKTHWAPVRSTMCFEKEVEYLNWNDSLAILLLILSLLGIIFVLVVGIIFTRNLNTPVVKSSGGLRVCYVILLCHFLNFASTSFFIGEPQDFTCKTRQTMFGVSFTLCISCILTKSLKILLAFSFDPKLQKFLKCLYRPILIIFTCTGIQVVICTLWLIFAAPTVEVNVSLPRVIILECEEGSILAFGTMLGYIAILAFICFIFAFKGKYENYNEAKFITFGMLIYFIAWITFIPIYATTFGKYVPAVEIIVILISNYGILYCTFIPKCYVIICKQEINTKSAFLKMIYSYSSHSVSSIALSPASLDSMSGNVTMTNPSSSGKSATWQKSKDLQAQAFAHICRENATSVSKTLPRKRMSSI
Experimental: (§1) HEK‐293 transfected with human GPRC6A isoform cDNA plasmids cells (10^5 cells/well)[30] were cultured in 24‐well plates in DMEM supplemented with 10% fetal bovine serum and 1% penicillin/streptomycin (100 U/mL of penicillin and 100 μg/mL of streptomycin) for 48 h followed by 4 h incubation in DMEM/F12 containing 0.1% BSA and 0.5 mM IBMX to achieve quiescence and preventing cAMP degradation. Quiescent cells were treated with vehicle control, various ligands at concentration as indicated for 40 min at 37°C. Then, the reaction was stopped, and the cells lysed with 0.5 mL 0.1 N HCl. cAMP levels were measured by using Cyclic AMP EIA kit (Cayman Chemical; Ann Arbor, MA, USA) following the manufacture's protocol.
(§2) In‐vitro mutagenesis by PCR‐mediated recombination QuikChange II XL Site‐Directed Mutagenesis Kit (Agilent) was performed using the cDNA of human GPRC6A cloned in the vector pcDNA3 (Invitrogen) as a template. The primer sets are as follows. K352E.sen: […]; K352E.antisen: […]; H355P.sen: […]; H355P.antisen: […]; K352E/H355P.sen: […]; and K352E/H355P.antisen: […]. All mutants were confirmed by sequencing.

[2] = biological target: T2, H355P hGPRC6A (Homo sapiens, UniProt Q5T6X5, H355P); test: ERK activation in HEK-293 cells transfected with H355P hGPRC6A; assay type: cell-based; settings: H355P mutant; for ERK activation by Ocn small fragments: fragment at 20 nM, Figure 6D
T2 construct: expressed in transfected cells; host or cells: HEK-293, pcDNA3
T2 sequence (Q5T6X5 19-926 H355P): T1 sequence (Q5T6X5 19-926 K352E) with E334K, H337P
Experimental: (§3) All culture reagents were from Invitrogen (Waltham, MA, USA). Human embryonic kidney HEK‐293 cells were obtained from American Type Culture Collection and cultured in DMEM medium supplemented with 10% fetal bovine serum and 1% Penicillin/Streptomycin (P/S). Briefly, HEK‐293 cells transfected with/without human GPRC6A isoforms cDNA plasmids were starved by overnight incubation in serum‐free DMEM/F12 containing 0.1% bovine serum albumin (BSA) and stimulated with various ligands at different doses. ERK activation was assessed 20 min after treatment by using ERK1/2 (phospho‐T203/Y204) ELISA Kit (Invitrogen; Waltham, MA, USA) corrected for the amount of total ERK using ERK1/2 (Total) ELISA Kit (Invitrogen; Waltham, MA, USA) to measure ERK levels.
as §2

[3] = test system: GPRC6A isoforms 1, 2 and 3; test: GPRC6A signaling in GPRC6A isoforms (read-out not given); assay type: cell-based, human
Experimental: as §3
as §1, with “Quiescent cells were treated with vehicle control, various ligands at concentration as indicated for 40 min at 37°C.” left out

Substance: RFYGPV [Ocn 44–49, synthesized human Ocn C‐terminal hexapeptide]
- cAMP accumulation by Ocn small fragments [1]: significantly attenuated
- ERK activation by Ocn small fragments [2]: significantly attenuated
- Activation of GPRC6A signaling in GPRC6A isoforms ([3]; all isoforms, including isoforms 2 and 3 with deletions in the VFT): activated GPRC6A signaling in all GPRC6A isoforms

Substance: REVCELNPDC (disulfide 4-10 (inferred)) [Ocn 20–29, synthesized human Ocn decapeptide fragment located in the middle of the protein]
- cAMP accumulation by Ocn small fragments [1]: no response
- ERK activation by Ocn small fragments [2]: no response
- Response of GPRC6A isoforms 2 and 3 ([3]; isoforms 2 and 3): diminished responses

Substance: osteocalcin (YLYQWLGAPVPYPDPLEPRREVCELNPDCDELADHIGFQEAYRRFYGPV; not fully specified; ends and bridges not checked; UniProt P02818 52-100, looked up) [Ocn 1–49, full human Ocn (49 aa) synthesized by BioMatik; methods also describe decarboxylated Ocn purified from bovine tibial bone, reference compound]
- cAMP accumulation, dose response of full-length Ocn, versus wild-type receptor ([1]; Figure 6A): significantly decreased
- ERK phosphorylation, dose response of full-length Ocn, versus wild-type receptor ([2]; Figure 6B): significantly decreased

From PMC11467737, “Osteocalcin binds to a GPRC6A Venus fly trap allosteric site to positively modulate GPRC6A signaling” (FASEB BioAdvances, 2024)
